Experimental data taken from ChEMBL document CHEMBL1132766, “Synthesis and antiamoebic activity of new cyclooctadiene ruthenium(II) complexes with 2-acetylpyridine and benzimidazole derivatives” (Bioorg Med Chem Lett, 2000).
≈ marks a conversion by molar mass, not a printed value.

What follows are compounds tested on Entamoeba histolytica (assay: Tested for antiamoebic activity against HK-9 strain of Entamoeba histolytica).
Format: functional, organism-based

SMILES | IC50 [µg/mL]
C/C(=N\NC(N)=S)c1ccccn1 | 0.31 (≈ 1.6 µM)
c1ccc(-c2nc3ccccc3[nH]2)nc1 | 0.42 (≈ 2.15 µM)
CS/C(S)=N/N=C(\C)c1ccccn1 | 0.38 (≈ 1.69 µM)
Cc1ncc([N+](=O)[O-])n1CCO [METRONIDAZOLE] | 0.33 (≈ 1.93 µM)
C/C(=N\N=C(/S)SCc1ccccc1)c1ccccn1 | 0.4 (≈ 1.33 µM)
